Results on one molecule are retold here after patent publication US20260048036A1, “CRYSTALLINE FORMS OF A GLUCOSYLCERAMIDE SYNTHASE INHIBITOR AND USES THEREOF” (ACELINK THERAPEUTICS, INC., priority 2022, published 2026).

For data set [1], the target named is T1, Glucosylceramide synthase (GCS) (Canis lupus familiaris, UniProt A0A8I3MXG6).
T1 construct: The MDCK, K-562, and L6 cell lines all endogenously express GCS enzyme; host or cells: MDCK (canine kidney) cell lysate
T1 sequence (A0A8I3MXG6 1-394): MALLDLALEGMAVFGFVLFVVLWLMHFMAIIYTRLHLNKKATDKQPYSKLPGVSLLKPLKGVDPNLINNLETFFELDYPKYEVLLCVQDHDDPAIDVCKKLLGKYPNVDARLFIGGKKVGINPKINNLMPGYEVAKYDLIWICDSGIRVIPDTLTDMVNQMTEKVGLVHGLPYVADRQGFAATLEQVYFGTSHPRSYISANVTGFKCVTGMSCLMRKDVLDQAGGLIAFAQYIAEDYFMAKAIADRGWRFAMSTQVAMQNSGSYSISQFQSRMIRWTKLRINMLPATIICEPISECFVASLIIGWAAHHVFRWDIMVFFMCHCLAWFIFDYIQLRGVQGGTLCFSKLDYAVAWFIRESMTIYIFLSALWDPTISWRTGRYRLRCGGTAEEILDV
The experiment in a line: GCS enzymatic assay with MDCK cell lysate. It is filed as biochemical, canine. The text has this: The reaction product, C6-NBD-glucosylceramide, could then be detected and quantified by LC-MS/MS. The inventors used this method to test and validate the effect of various GCS inhibitors on GCS enzyme activity from different species.
The GCS enzyme activity was detected by using the fluorescent substrate, C6-NBD-ceramide, and monitoring the formation of the fluorescent reaction product, C6-NBD-glucosylceramide. First, the inventors used cell lysate derived from a canine kidney cell line (MDCK, ATCC Cat #CCL-34™) as the source of GCS and tested the inhibitory activity of several control and test compounds.
GCS activity was evaluated using a GCS enzyme assay derived from MDCK or L6 cell lysates.
MDCK or L6 cell lysates were prepared using M-PER in the presence of a protease inhibitor cocktail. Each 100 mm dish (100% confluent) was lysed with 250 μl of M-PER containing protease inhibitors. Protein concentration was determined using Pierce BCA protein assay kit.
The final concentration of DMSO was 0.1% in both compound treated and DMSO only treated samples. Each individual reaction was terminated with 11 volumes of methanol:acetonitrile (6:5; containing 200 ng/ml Tolbutamide as internal control). After sufficient mixing, reactions were centrifuged at 2000 rpm for 10 mins, supernatant was injected into the LC-MS/MS for analysis.
The quantitative analysis of C6-NBD-glucosylceramide was performed on a Shimadzu ultra-fast liquid chromatography coupled with API 4000 mass spectrometer. Analyst 1.5 software packages were used to control the LC-MS/MS system, as well as for data acquisition and processing.
The C6-NBD-glucosylceramide reading was normalized first by dividing the peak area of C6-NBD-glucosylceramide with the peak area of the internal standard, and then the amount was calculated according to the standard curve generated in the same assay run. For the cell based assay results, the amount of C6-NBD-glucosylceramide was also normalized by the protein concentration of the cell samples.
IC50 values were generated from sigmoidal dose-response (variable slope) curves with GraphPad Prism software (GraphPad Software, Inc., San Diego, CA) using the percent inhibition of C6-NBD-glucosylceramide accumulation relative to DMSO control.

A further data set is described as follows: physchem. The settings on record: thermodynamic from solid.
Setting [2] is: 0.1 μM, 60 μg MDCK lysate/reaction, N = 1, N = 2.
The mark [3] stands for this setting: 50 mM acetate buffer, pH 4.5, 37 °C, pH 4.5, aqueous buffer.
[4] abbreviates: 50 mM phosphate buffer, pH 6.8, 37 °C, pH 6.8, aqueous buffer.

The structures appear in SMILES notation. In brackets after ≈: the same amount, converted by molar mass. Several values for one entry are separate records, joined by “and”; a condition that tells them apart may be missing. Equal entries are not always repeated.

As to `O=C(N[C@H](CN1CCCC1)[C@H](O)c1ccc(OC2CC2)c(Cl)c1)/C(=N/O)c1ccc2cc(Cl)ccc2c1` [Crystalline Form A of Compound 1], in data set [1] (setting [2]), the “C6-NBD-Ceramide (Normalized to internal control)” value is 5.04 and 4.88. Besides, the “C6-NBD-Glucosylceramide Concentration” value in data set [1] (setting [2]) was 33.1 nM and 32.5 nM. The Inhibition in data set [1] (setting [2]) is 96.72%. The molecule further displayed an inhibition at 0.1 µM in data set [1] (setting [2]) of 96.7%. For the same molecule, it took 7.66 nM to reach half-maximal inhibition in data set [1] (MDCK cell lysate as source of GCS, C6-NBD-glucosylceramide by LC-MS/MS) (IC50). For the same molecule, the solubility at 2 h was 230 µg/mL (≈ 424 µM) in the data set “physchem” (setting [3]); 10 µg/mL (≈ 18.4 µM) in “physchem” (setting [4]); 30 µg/mL (≈ 55.3 µM) in the data set “physchem” (FaSSIF-V1, 37 °C, pH 6.5, fassif); 1970 µg/mL (≈ 3630 µM) in the data set “physchem” (FeSSIF-V1, 37 °C, pH 5, fessif); 1160 µg/mL (≈ 2140 µM) in “physchem” (SGF, 37 °C, pH 2, simulated gastric fluid). Moreover, the solubility at 24 h in the data set “physchem” (setting [3]) was 210 µg/mL (≈ 387 µM); in “physchem” (setting [4]) it was 5 µg/mL (≈ 9.22 µM); in “physchem” (0.1N HCl, pH 1.2, 37 °C, pH 1.2, simulated gastric fluid), 970 µg/mL (≈ 1790 µM); in the data set “physchem” (FeSSIF-V1, 37 °C, pH 5, fessif), greater than 2000 µg/mL.
